The test system of series [1] is Bladder carcinoma cells EJ. Kind of series: in vitro cytotoxicity assay, crystal violet, 72 h (Example 1). The series is classed as cell-based, human. Conditions: for IC50: Homo sapiens. The procedure:
(§1) Examinations for the in vitro cytoxicity of 2-methylthiazolidine-2,4-dicarboxylic acid and N-acetylcysteine in human tumor cell lines were carried out.
(§2) The cells were kept in culturing medium RPMI 1640 (Sigma, Munich) and in addition 10% FCS (Sigma, Munich) in 50 ml cell culture vials (Greiner) at 37° C. as well as under a 5% of CO2 atmosphere.
(§3) Monolayers of the tumor cells were prepared by dispersion of 2×10^6 tumor cells in 96-hole-plates (Greiner). After an incubation time of 24 hours the medium was replaced by a medium containing the test compounds. All assays were carried out four times.
(§4) After 72 h the quantity of living cells was determined by means of coloring with crystal violet.
(§5) For that purpose, the medium was removed from each hole in the plate, the plates were washed twice with PBS, the cells were fixed by means of PBS, containing 1% of paraformaldehyde and dried for 15 minutes at room temperature. Subsequently, the cells were rinsed with PBS and dried at room temperature.
(§6) Thereafter, the cells were colored with 1% crystal violet solution in water for two minutes, and after washing with water the optical density was determined by means of an ELISA spectrometer at 595 nm. The average values and standard deviations for the average values were determined for all four parallel tests.

The next series concerns Neuroglioma cells H4. The series is described as above. Conditions: human gliomas cells H4, 72 h; for cytotoxic effect: N-acetylcysteine up to comparatively high concentrations. The format is cell-based. Here is the method: as §1, §2, §3, §4, §5, §6

Values after ≈ are worked out from the molar mass of the structure shown. Like-named read-outs stand apart in the source and are kept apart here.

Take `CC1(C(=O)O)NC(C(=O)O)CS1` (stereo not shown) [2-methylthiazolidine-2,4-dicarboxylic acid]: the “growth of the bladder carcinoma cell line EJ” value in series [1] (substance alone) was “not influenced”. Moreover, in the series on Neuroglioma cells H4, 9.66 µg/mL (≈ 50.5 µM) corresponded to half-maximal inhibition (IC50) and the cytotoxic effect entry is “significant cytotoxic effect”.

Regarding `Cn1nnc2c(C(N)=O)ncn2c1=O` [temozolomide, Temozolomide], the IC50 – broadly, the midpoint of a concentration-inhibition curve – in series [1] (alone, read-out: IC50 value for temozolomide alone) worked out at 1050 µg/mL (≈ 5430 µM); in series [1] (in the presence of 200 μg/ml 2-methylthiazolidine-2,4-dicarboxylic acid, read-out: IC50 value of temozolomide in the presence of 2-methylthiazolidine-2,4-dicarboxylic acid), 96.6 µg/mL; in series [1] (in the presence of 1000 μg/ml N-acetylcysteine, read-out: IC50 value of temozolomide in the presence of N-acetylcysteine), 903 µg/mL.

For `CC(=O)N[C@@H](CS)C(=O)O` [N-acetylcysteine], the cytotoxic effect entry in the series with Neuroglioma cells H4 was “no effect”.

Values taken from patent US20070213382A1, “2-METHYLTHIAZOLIDINE-2, 4-DICARBOXYLIC ACID-CONTAINING COMBINATION PREPARATIONS” (priority 2004, published 2007).
